Data reported in patent publication US20140303242A1, “Sparstolonin B Based Pharmaceutical Agent to Treat Pathological Angiogensis” (University of South Carolina, priority 2013, published 2014).

Key:
Type in all cases: cell-based, human
HUVECs [1] = test: Matrigel tube formation assay (HUVECs); conditions: concentrations between 1 and 100 μM, 4 h, p<0.05
Method: (§1) To initially determine if SsnB inhibited pro-angiogenic cell functions, a tube formation assay with Matrigel was performed. Growth factor reduced Matrigel (BD Biosciences, Bedford, Mass.) was added to the wells of a 96 well polystyrene culture plate and incubated at 37° C. for 30 minutes. Cells (HUVECs, HCAECs, or HMVECs at passage 2 to 4) were added to each well to reach a final number of 20,000 cells per well. SsnB was added to the wells at a concentration of 1, 10, or 100 μM. Endothelial cell medium with DMSO (0.1%) was used as a vehicle control. Each group contained 4 replicates. The plates were placed in an incubator for 4 h. During the incubation, the endothelial cells formed elongated structures called cords, also known as tubes. After 4 h, neutral buffered formalin was added to fix the cells. Pictures of three non-overlapping fields were taken from each well. The lengths of single cell endothelial cords were measured with Image-Pro Plus (Media Cybernetics, Silver Spring, Md.), and the sum of tube lengths for each well was determined. The average total length and standard deviation for each group were determined, and the appropriate statistical tests (ANOVA and Newman-Keuls) were completed. The tube formation assay was replicated three times for both HUVECs and HCAECs. The assay was also repeated with cardiac HMVECs.

HCAECs [2] = test: Matrigel tube formation assay (HCAECs); conditions: between 1 and 100 μM, 4 h
Method: as §1

HUVECs [3] = test: Microarray gene expression analysis (HUVECs)
Method: (§2) Confluent plates (100×20 mm polystyrene, tissue culture-treated petri plates coated with 0.1% gelatin, 75% confluent) of HUVECs and HCAECs (four plates for HUVECs, n=2, and six plates for HCAECs, n=3) were chosen for the microarray experiments. Half of the plates received complete growth medium (10% fetal bovine serum with endothelial mitogen) containing vehicle control (0.1% DMSO), and the remaining plates received complete growth medium containing 100 μM SsnB. The plates were incubated for 24 h to allow SsnB to have an effect on cellular gene expression. Following incubation, RNA isolation was completed with the RNeasy Mini kit from Qiagen. The cells were lysed, and RNA was isolated by using the RNeasy spin columns and following the protocol provided by Qiagen. Purified RNA was sent to the Medical University of South Carolina Proteogenomics Facility for microarray analysis. The GeneChip Human Genome U133 Plus 2.0 Array was utilized to track changes in gene expression due to SsnB treatment. Complete data was uploaded to the NCBI Gene Expression Omnibus database (accession number GSE44598).
(§3) Microarray data analysis, including data normalization (robust multi-array average), identification of differentially expressed genes (comparative analyses with dChip software), and heat map construction, was carried out to determine how SsnB affects gene expression and affected pathways (n=2 for HUVECs and n=3 for HCAECs). After a careful analysis of the microarray data, several key genes were chosen for qRT-PCR to verify the gene expression results. The genes were chosen based on the following criteria: fold change ≧2, p<0.05, unpaired t-test with a false discovery rate approximating 0%, appearing in both data sets (HUVECs and HCAECs), and gene function relating to cell proliferation and/or angiogenesis. For qRT-PCR, the expression levels were normalized to the housekeeping gene GAPDH, and RNA levels were compared between groups with the ΔΔCt method.

HCAECs [4] = test: Microarray gene expression analysis (HCAECs); conditions: 24 h
Method: as §2, §3

[5] = HUVECs, 100 μM SsnB vs vehicle control, 24 h
[6] = microarray data, cell type not specified

## O=c1occ2c3c(ccc(O)c13)Oc1ccc(O)cc1-2 [SsnB, Sparstolonin B]
HUVECs [1]
  HUVEC tube formation: dose-dependent inhibition
HCAECs [2]
  HCAEC tube formation on Matrigel: dose-dependent inhibition
HUVECs [3]; [5]
  ALDH3A1 Microarray Fold change value: 7.7
  ANLN Microarray Fold change value: 0.09
  CCNB1 Microarray Fold change value: 0.19
  CCNE2 Microarray Fold change value: 0.24
  CDC2 Microarray Fold change value: 0.08
  CDC6 Microarray Fold change value: 0.23
  CDKN3 Microarray Fold change value: 0.19
  DIAPH3 Microarray Fold change value: 0.34
  HMMR Microarray Fold change value: 0.11
  KITLG Microarray Fold change value: 6.2
HUVECs [3]; HUVECs, 100 μM, 24 h, fold change ≧2, p<0.05
  number of differentially expressed genes in response to SsnB exposure: 916 genes
HUVECs [3]; [6]
  KIF18A expression in microarray data: downregulated
  TACC3 expression in microarray data: downregulated
  aurora kinases (AURKA and AURKB) expression in microarray data: downregulated
HCAECs [4]; 100 μM SsnB vs vehicle control
  ALDH3A1 Microarray Fold change value: 8.8
  ANLN Microarray Fold change value: 0.11
  CCNB1 Microarray Fold change value: 0.16
  CCNE2 Microarray Fold change value: 0.38
  CDC2 Microarray Fold change value: 0.20
  CDC6 Microarray Fold change value: 0.18
  CDKN3 Microarray Fold change value: 0.18
  DIAPH3 Microarray Fold change value: 0.38
  HMMR Microarray Fold change value: 0.20
  KITLG Microarray Fold change value: 2.1
HCAECs [4]; 100 μM, fold change ≧2, p<0.05
  number of differentially expressed genes in response to SsnB exposure: 356 genes
